Experimental data from US20150119363A1, “METHODS OF TREATING BACTERIAL INFECTIONS” (Rampex Pharmaceuticals, Inc., priority 2012, published 2015).

Key:
Assay in all cases: Dose titration biapenem potentiation assay (MPC1)
Conditions in all cases: biapenem 1 μg/mL
EC1007 KPC-3 = type: cell-based, Escherichia coli
Procedure: (§1) The potency and spectrum of β-lactamase inhibitors is also determined by assessing their biapenem potentiation activity in a dose titration potentiation assay using strains expressing serine carbapemenases (such as KPC). The potentiation effect is observed as the ability of BLI compounds to inhibit growth in the presence of sub-inhibitory concentration of biapenem. […] Biapenem is present in the test medium at 1 μg/mL. Compounds tested at the highest concentration of 40 μg/mL. […] Table 5 summarizes BLI potency of biapenem potentiation (MPC1). Biapenem MIC for each strain is also shown.

ECL1004 NMC-A = type: cell-based, Enterobacter cloacae
Procedure: as §1

KP1008 KPC-2 = type: cell-based, Klebsiella pneumoniae
Procedure: as §1

KP1004 KPC-2 = type: cell-based, Klebsiella pneumoniae
Procedure: as §1

Row | Structure (SMILES) | BPM MPC1 EC1007 KPC-3 (EC1007 KPC-3) | BPM MPC1 ECL1004 NMC-A (ECL1004 NMC-A) | BPM MPC1 KP1008 KPC-2 (KP1008 KPC-2) | BPM MPC1 KP1004 KPC-2 (KP1004 KPC-2)
1 | O=C(O)C[C@@H]1CC[C@H](NC(=O)CCc2ccccc2)B(O)O1 [Compound 38, 2-((3R,6S)-2-hydroxy-3-(3-phenylpropanamido)-1,2-oxaborinan-6-yl)acetic acid] | X (X = MPC1 of less than 1 μg/mL.) | X (X = MPC1 of less than 1 μg/mL.) | X (X = MPC1 of less than 1 μg/mL.) | X (X = MPC1 of less than 1 μg/mL.)
2 | Nc1nc(CC(=O)N[C@H]2CC[C@@H](CC(=O)O)OB2O)cs1 [Compound 39, 2-((3R,6S)-3-(2-(2-aminothiazol-4-yl)acetamido)-2-hydroxy-1,2-oxaborinan-6-yl)acetic acid] | X (X = MPC1 of less than 1 μg/mL.) | X (X = MPC1 of less than 1 μg/mL.) | X (X = MPC1 of less than 1 μg/mL.) | X (X = MPC1 of less than 1 μg/mL.)
3 | CO/N=C(\C(=O)N[C@H]1CC[C@@H](CC(=O)O)OB1O)c1csc(N)n1 [Compound 40, 2-((3R,6S)-3-((Z)-2-(2-aminothiazol-4-yl)-2-(methoxyimino)acetamido)-2-hydroxy-1,2-oxaborinan-6-yl)acetic acid] | Y (Y = MPC1 of 1 μg/mL to 5 μg/mL.) | Y (Y = MPC1 of 1 μg/mL to 5 μg/mL.) | X (X = MPC1 of less than 1 μg/mL.) | Y (Y = MPC1 of 1 μg/mL to 5 μg/mL.)
4 | CSCCC(N)C(=O)N[C@H]1CC[C@@H](CC(=O)O)OB1O (stereo partly drawn) [Compound 41, 2-((3R,6S)-3-(2-amino-4-(methylthio)butanamido)-2-hydroxy-1,2-oxaborinan-6-yl)acetic acid] | X (X = MPC1 of less than 1 μg/mL.) | Y (Y = MPC1 of 1 μg/mL to 5 μg/mL.) | X (X = MPC1 of less than 1 μg/mL.) | X (X = MPC1 of less than 1 μg/mL.)
5 | NC(Cc1cccnc1)C(=O)N[C@H]1CC[C@@H](CC(=O)O)OB1O (stereo partly drawn) [Compound 42, 2-((3R,6S)-3-(2-amino-3-(pyridin-3-yl)propanamido)-2-hydroxy-1,2-oxaborinan-6-yl)acetic acid] | X (X = MPC1 of less than 1 μg/mL.) | Y (Y = MPC1 of 1 μg/mL to 5 μg/mL.) | X (X = MPC1 of less than 1 μg/mL.) | X (X = MPC1 of less than 1 μg/mL.)
6 | O=C(O)C[C@@H]1CC[C@H](NC(=O)Cc2cccnc2)B(O)O1 [Compound 43, 2-((3R,6S)-2-hydroxy-3-(2-(pyridin-3-yl)acetamido)-1,2-oxaborinan-6-yl)acetic acid] | X (X = MPC1 of less than 1 μg/mL.) | X (X = MPC1 of less than 1 μg/mL.) | X (X = MPC1 of less than 1 μg/mL.) | X (X = MPC1 of less than 1 μg/mL.)
7 | N[C@H](CCCN/C(=N/C(=O)OCc1ccccc1)NC(=O)OCc1ccccc1)C(=O)N[C@H]1CC[C@@H](CC(=O)O)OB1O [Compound 44, 2-((3R,6S)-3-((R)-2-amino-5-((Z)-2,3-bis(benzyloxycarbonyl)guanidino)pentanamido)-2-hydroxy-1,2-oxaborinan-6-yl)acetic acid] | X (X = MPC1 of less than 1 μg/mL.) | Y (Y = MPC1 of 1 μg/mL to 5 μg/mL.) | X (X = MPC1 of less than 1 μg/mL.) | X (X = MPC1 of less than 1 μg/mL.)
8 | O=C(O)C[C@@H]1CC[C@H](NC(=O)[C@@H]2CCCCN2)B(O)O1 [Compound 45, 2-((3R,6S)-2-hydroxy-3-((S)-piperidine-2-carboxamido)-1,2-oxaborinan-6-yl)acetic acid] | X (X = MPC1 of less than 1 μg/mL.) | Z (Z = MPC1 of greater than 5 μg/mL.) | X (X = MPC1 of less than 1 μg/mL.) | Y (Y = MPC1 of 1 μg/mL to 5 μg/mL.)
9 | O=C(O)C[C@@H]1CC[C@H](NC(=O)[C@H]2Cc3ccccc3CN2)B(O)O1 [Compound 46, 2-((3R,6S)-2-hydroxy-3-((R)-1,2,3,4-tetrahydroisoquinoline-3-carboxamido)-1,2-oxaborinan-6-yl)acetic acid] | X (X = MPC1 of less than 1 μg/mL.) | X (X = MPC1 of less than 1 μg/mL.) | X (X = MPC1 of less than 1 μg/mL.) | X (X = MPC1 of less than 1 μg/mL.)
10 | N=C(N)NCCC[C@@H](N)C(=O)N[C@H]1CC[C@@H](CC(=O)O)OB1O [Compound 47] | X (X = MPC1 of less than 1 μg/mL.) | Z (Z = MPC1 of greater than 5 μg/mL.) | X (X = MPC1 of less than 1 μg/mL.) | Y (Y = MPC1 of 1 μg/mL to 5 μg/mL.)
11 | NCCSCC(=O)N[C@H]1CC[C@@H](CC(=O)O)OB1O [Compound 48, 2-((3R,6S)-3-(2-(2-aminoethylthio)acetamido)-2-hydroxy-1,2-oxaborinan-6-yl)acetic acid] | X (X = MPC1 of less than 1 μg/mL.) | X (X = MPC1 of less than 1 μg/mL.) | X (X = MPC1 of less than 1 μg/mL.) | X (X = MPC1 of less than 1 μg/mL.)
12 | O=C(O)C[C@@H]1CC[C@H](NC(=O)Cc2ccncc2)B(O)O1 [Compound 49, 2-((3R,6S)-2-hydroxy-3-(2-(pyridin-4-yl)acetamido)-1,2-oxaborinan-6-yl)acetic acid] | X (X = MPC1 of less than 1 μg/mL.) | X (X = MPC1 of less than 1 μg/mL.) | X (X = MPC1 of less than 1 μg/mL.) | X (X = MPC1 of less than 1 μg/mL.)
13 | N[C@H]1CC[C@@H](CC(=O)N[C@H]2CC[C@@H](CC(=O)O)OB2O)CC1 [Compound 50, 2-((3R,6S)-3-(2-(4-aminocyclohexyl)acetamido)-2-hydroxy-1,2-oxaborinan-6-yl)acetic acid] | X (X = MPC1 of less than 1 μg/mL.) | X (X = MPC1 of less than 1 μg/mL.) | X (X = MPC1 of less than 1 μg/mL.) | X (X = MPC1 of less than 1 μg/mL.)
14 | NC1(CC(=O)N[C@H]2CC[C@@H](CC(=O)O)OB2O)CCCCC1 [Compound 51, 2-((3R,6S)-3-(2-(1-aminocyclohexyl)acetamido)-2-hydroxy-1,2-oxaborinan-6-yl)acetic acid] | X (X = MPC1 of less than 1 μg/mL.) | Y (Y = MPC1 of 1 μg/mL to 5 μg/mL.) | X (X = MPC1 of less than 1 μg/mL.) | X (X = MPC1 of less than 1 μg/mL.)
15 | O=C(O)C[C@@H]1CC[C@H](NC(=O)C[C@H]2CCCCN2)B(O)O1 [Compound 52, 2-((3R,6S)-2-hydroxy-3-(2-((R)-piperidin-2-yl)acetamido)-1,2-oxaborinan-6-yl)acetic acid] | X (X = MPC1 of less than 1 μg/mL.) | Y (Y = MPC1 of 1 μg/mL to 5 μg/mL.) | X (X = MPC1 of less than 1 μg/mL.) | X (X = MPC1 of less than 1 μg/mL.)
16 | O=C(O)C[C@@H]1CC[C@H](NC(=O)C[C@@H]2CCCCN2)B(O)O1 [Compound 53, 2-((3R,6S)-2-hydroxy-3-(2-((S)-piperidin-2-yl)acetamido)-1,2-oxaborinan-6-yl)acetic acid] | X (X = MPC1 of less than 1 μg/mL.) | Y (Y = MPC1 of 1 μg/mL to 5 μg/mL.) | X (X = MPC1 of less than 1 μg/mL.) | X (X = MPC1 of less than 1 μg/mL.)
17 | O=C(O)C[C@@H]1CC[C@H](NC(=O)Cn2ccnc2-c2ccccc2)B(O)O1 [Compound 54, 2-((3R,6S)-2-hydroxy-3-(2-(2-phenyl-1H-imidazol-1-yl)acetamido)-1,2-oxaborinan-6-yl)acetic acid] | X (X = MPC1 of less than 1 μg/mL.) | X (X = MPC1 of less than 1 μg/mL.) | X (X = MPC1 of less than 1 μg/mL.) | X (X = MPC1 of less than 1 μg/mL.)
18 | Cc1nc2ccccc2n1CCC(=O)N[C@H]1CC[C@@H](CC(=O)O)OB1O [Compound 55] | X (X = MPC1 of less than 1 μg/mL.) | X (X = MPC1 of less than 1 μg/mL.) | X (X = MPC1 of less than 1 μg/mL.) | X (X = MPC1 of less than 1 μg/mL.)
